According to patent US8445503B2, “Inhibitors of polo-like kinase” (Elan Pharmaceuticals, Inc., priority 2009, dated 2013):
Like-named read-outs stand apart in the source and are kept apart here.

Experiments:
Assay type in all cases: biochemical
GST-PLK1 = GST-PLK1 (Homo sapiens, UniProt P53350); test: PLK TR-FRET peptide assay, PLK1; conditions: read-out: Plk1 IC50
GST-PLK3 = target: T1, GST-PLK3 (Homo sapiens, UniProt Q9H4B4); test: PLK TR-FRET peptide assay, PLK3
T1 construct: purchased CarnaBio

GST-PLK2 = target: T2, GST-PLK2 (Homo sapiens, UniProt Q9NYY3); test: PLK TR-FRET peptide assay, PLK2; conditions: for IC50: read-out: Plk2 IC50; for PLK2 activity relative to the opposite enantiomer / other isomer: comparison of resolved enantiomers, used to assign absolute configuration
T2 construct: purchased CarnaBio

[1] = PLK TR-FRET peptide assay, GST-PLK3; read-out: Plk3 IC50
[2] = PLK TR-FRET peptide assay, GST-PLK2

T1 sequence (Q9H4B4 whole entry): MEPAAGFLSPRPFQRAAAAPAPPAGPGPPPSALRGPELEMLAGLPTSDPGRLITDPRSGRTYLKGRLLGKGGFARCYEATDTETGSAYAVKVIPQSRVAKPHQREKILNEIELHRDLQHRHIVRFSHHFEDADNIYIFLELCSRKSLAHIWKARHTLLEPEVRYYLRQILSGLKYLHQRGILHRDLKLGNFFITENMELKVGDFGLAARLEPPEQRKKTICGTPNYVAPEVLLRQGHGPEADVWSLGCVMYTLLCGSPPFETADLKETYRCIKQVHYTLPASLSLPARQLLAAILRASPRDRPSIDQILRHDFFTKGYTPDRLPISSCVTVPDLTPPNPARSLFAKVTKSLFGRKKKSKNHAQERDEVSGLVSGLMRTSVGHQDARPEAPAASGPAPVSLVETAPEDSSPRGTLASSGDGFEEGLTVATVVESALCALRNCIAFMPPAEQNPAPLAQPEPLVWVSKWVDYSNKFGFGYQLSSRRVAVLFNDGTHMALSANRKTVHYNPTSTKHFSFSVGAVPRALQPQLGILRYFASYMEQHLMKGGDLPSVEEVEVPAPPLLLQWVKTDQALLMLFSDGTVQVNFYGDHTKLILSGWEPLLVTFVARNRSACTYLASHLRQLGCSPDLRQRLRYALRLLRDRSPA
T2 sequence (Q9NYY3 whole entry): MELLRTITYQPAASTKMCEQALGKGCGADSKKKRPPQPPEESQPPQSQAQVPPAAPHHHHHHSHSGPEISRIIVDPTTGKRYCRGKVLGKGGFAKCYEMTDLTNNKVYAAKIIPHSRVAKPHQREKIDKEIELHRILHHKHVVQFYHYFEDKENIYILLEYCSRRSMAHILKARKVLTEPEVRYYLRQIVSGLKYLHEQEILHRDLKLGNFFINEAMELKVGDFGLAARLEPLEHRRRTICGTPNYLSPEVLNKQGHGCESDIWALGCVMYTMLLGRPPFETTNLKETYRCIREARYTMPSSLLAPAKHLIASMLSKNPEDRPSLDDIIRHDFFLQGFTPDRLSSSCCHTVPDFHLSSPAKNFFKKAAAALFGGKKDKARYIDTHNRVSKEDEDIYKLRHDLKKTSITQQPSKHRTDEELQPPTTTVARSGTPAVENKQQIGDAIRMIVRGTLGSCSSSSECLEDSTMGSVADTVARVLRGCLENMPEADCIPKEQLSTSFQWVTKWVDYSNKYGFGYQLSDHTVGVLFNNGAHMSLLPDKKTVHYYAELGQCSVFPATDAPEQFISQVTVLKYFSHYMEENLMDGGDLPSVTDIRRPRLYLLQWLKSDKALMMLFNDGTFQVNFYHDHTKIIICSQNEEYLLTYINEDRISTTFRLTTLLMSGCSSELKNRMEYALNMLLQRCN
Sequence of GST-PLK1 (P53350 whole entry): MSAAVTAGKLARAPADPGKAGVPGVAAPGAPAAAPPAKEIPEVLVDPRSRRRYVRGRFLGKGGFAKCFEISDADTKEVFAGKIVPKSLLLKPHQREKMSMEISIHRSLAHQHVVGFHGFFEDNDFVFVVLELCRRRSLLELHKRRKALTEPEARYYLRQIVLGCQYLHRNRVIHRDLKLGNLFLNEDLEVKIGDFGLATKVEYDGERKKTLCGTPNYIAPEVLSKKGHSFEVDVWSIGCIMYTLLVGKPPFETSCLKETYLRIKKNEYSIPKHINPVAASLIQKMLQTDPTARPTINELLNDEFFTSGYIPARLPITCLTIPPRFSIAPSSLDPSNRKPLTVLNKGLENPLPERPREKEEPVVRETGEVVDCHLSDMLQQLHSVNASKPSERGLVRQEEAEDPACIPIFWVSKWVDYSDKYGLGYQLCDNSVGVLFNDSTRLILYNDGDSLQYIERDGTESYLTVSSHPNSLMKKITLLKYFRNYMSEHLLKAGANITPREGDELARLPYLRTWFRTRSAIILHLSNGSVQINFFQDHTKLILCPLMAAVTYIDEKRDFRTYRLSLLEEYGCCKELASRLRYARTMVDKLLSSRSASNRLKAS

| SMILES | IC50 (GST-PLK1) [µM] | IC50 (GST-PLK3; [1]) [µM] | IC50 (GST-PLK2; [2]) [µM] | other results |
| --- | --- | --- | --- | --- |
| CC[C@@H]1C(=O)N(C)c2cnc(-n3ccnc3)nc2N1C1CCC1 [Example 111, (R)-8-cyclobutyl-7-ethyl-2-(1H-imidazol-1-yl)-5-methyl-7,8-dihydropteridin-6(5H)-one] | 1 to 10 | 10 to 50 | < 1 | – |
| CC[C@@H]1C(=O)N(C)c2cnc(-c3ccncc3)nc2N1C1CCC1 [Example 109, (R)-8-cyclobutyl-7-ethyl-5-methyl-2-(pyridin-4-yl)-7,8-dihydropteridin-6(5H)-one] | 1 to 10 | 10 to 50 | < 1 | – |
| CC[C@@]12COCCN1c1nc(-c3cccnc3-c3ccccc3)ncc1N(C)C2=O [Example 403, (S)-6a-ethyl-5-methyl-2-(2-phenylpyridin-3-yl)-6a,7,9,10-tetrahydro-[1,4]oxazino[3,4-h]pteridin-6(5H)-one] | 10 to 50 | 1 to 10 | < 1 | – |
| CC[C@@H]1C(=O)N(C)c2cnc(-c3cnncc3-c3ccccc3)nc2N1C1CCCC1 [Example 139, (R)-8-cyclopentyl-7-ethyl-5-methyl-2-(5-phenylpyridazin-4-yl)-7,8-dihydropteridin-6(5H)-one] | < 1 | < 1 | < 1 | – |
| CC[C@@]12COCCN1c1nc(-c3cn[nH]c3-c3ccc(F)cc3F)ncc1N(C)C2=O [Example 411, (S)-2-(5-(2,4-difluorophenyl)-1H-pyrazol-4-yl)-6a-ethyl-5-methyl-6a,7,9,10-tetrahydro-[1,4]oxazino[3,4-h]pteridin-6(5H)-one] | 10 to 50 | 1 to 10 | < 1 | PLK2 activity relative to the opposite enantiomer / other isomer (GST-PLK2): more active compound |
| CC[C@@H]1C(=O)N(C)c2cnc(-c3cc[n+]([O-])cc3)nc2N1C1CCCC1 [Example 13, (R)-4-(8-cyclopentyl-7-ethyl-5-methyl-6-oxo-5,6,7,8-tetrahydropteridin-2-yl)pyridine 1-oxide] | 1 to 10 | – | 1 to 10 | – |
| CC[C@@H]1C(=O)N(C)c2cnc(-c3nccnc3-c3ccccc3)nc2N1C1CCCC1 [Example 138, (R)-8-cyclopentyl-7-ethyl-5-methyl-2-(3-phenylpyrazin-2-yl)-7,8-dihydropteridin-6(5H)-one] | < 1 | – | – | IC50 (GST-PLK3; read-out: Plk3 IC50; PLK TR-FRET peptide assay, GST-PLK3): < 1 µM; IC50 (GST-PLK2): < 1 µM |
| CN1C(=O)C23C=CC(CC2)N3c2nc(-n3ccnc3-c3ccccc3)ncc21 (stereo not drawn) [Example 326, 5-methyl-2-(2-phenyl-1H-imidazol-1-yl)-9H-6a,9-ethanopyrrolo[2,1-h]pteridin-6(5H)-one] | > 50 | > 50 | 1 to 10 | – |
| CC[C@]12COCCN1c1nc(-c3cn[nH]c3-c3ccc(F)cc3F)ncc1N(C)C2=O [Example 412, (R)-2-(5-(2,4-difluorophenyl)-1H-pyrazol-4-yl)-6a-ethyl-5-methyl-6a,7,9,10-tetrahydro-[1,4]oxazino[3,4-h]pteridin-6(5H)-one] | > 50 | > 50 | 1 to 10 | – |
| CC[C@@H]1C(=O)N(C)c2cnc(-c3n[nH]cc3-c3ccccc3)nc2N1C1CCCC1 [Example 245, (R)-8-cyclopentyl-7-ethyl-5-methyl-2-(4-phenyl-1H-pyrazol-3-yl)-7,8-dihydropteridin-6(5H)-one] | < 1 | 1 to 10 | < 1 | – |
| CC[C@@H]1C(=O)N(C)c2cnc(-n3cc(C(=O)NC)cn3)nc2N1C1CCCC1 [Example 40, (R)-1-(8-cyclopentyl-7-ethyl-5-methyl-6-oxo-5,6,7,8-tetrahydropteridin-2-yl)-N-methyl-1H-pyrazole-4-carboxamide] | < 1 | 10 to 50 | – | – |
| CC[C@@H]1C(=O)N(C)c2cnc(-c3cn[nH]c3)nc2N1C1CCCC1 [Example 7, (R)-8-cyclopentyl-7-ethyl-5-methyl-2-(1H-pyrazol-4-yl)-7,8-dihydropteridin-6(5H)-one] | < 1 | – | < 1 | – |
| CC[C@@]12COCCN1c1nc(-n3ccnc3-c3ccccc3)ncc1NC2=O [Example 418, (S)-6a-ethyl-2-(2-phenyl-1H-imidazol-1-yl)-6a,7,9,10-tetrahydro-[1,4]oxazino[3,4-h]pteridin-6(5H)-one] | – | – | – | PLK2 activity relative to the opposite enantiomer / other isomer (GST-PLK2): more active compound |
| CC[C@@H]1C(=O)N(C)c2cnc(-c3cn[nH]c3-c3nccs3)nc2N1C1CCOCC1 [Example 349] | – | < 1 | – | – |
| CC[C@@H]1C(=O)N(C)c2cnc(N3CCN=C3c3ccccc3)nc2N1C(C)C [Example 246, (R)-7-ethyl-8-isopropyl-5-methyl-2-(2-phenyl-4,5-dihydro-1H-imidazol-1-yl)-7,8-dihydropteridin-6(5H)-one] | – | – | – | IC50 (GST-PLK3; read-out: Plk3 IC50): 1 to 10 µM |
| CC[C@@H]1C(=O)N(C)c2cnc(-c3ccnc(O)c3)nc2N1C1CCCC1 [Example 14, (R)-8-cyclopentyl-7-ethyl-2-(2-hydroxypyridin-4-yl)-5-methyl-7,8-dihydropteridin-6(5H)-one] | < 1 | – | < 1 | – |

More lines, main results first:

| IC50 (GST-PLK1) [µM] | IC50 (GST-PLK3; [1]) [µM] | IC50 (GST-PLK2; [2]) [µM] | SMILES | other results |
| --- | --- | --- | --- | --- |
| < 1 | < 1 | < 1 | CC[C@@H]1C(=O)N(C)c2cnc(-n3ccnc3-c3ccncc3)nc2N1C1CCCC1 [Example 83, (R)-8-cyclopentyl-7-ethyl-5-methyl-2-(2-(pyridin-4-yl)-1H-imidazol-1-yl)-7,8-dihydropteridin-6(5H)-one] | – |
| 1 to 10 | 1 to 10 | < 1 | CCC1C(=O)N(C)c2cnc(-n3ccnc3-c3ccc(F)cc3)nc2N1c1ccccc1 (stereo not drawn) [Example 291, 7-ethyl-2-(2-(4-fluorophenyl)-1H-imidazol-1-yl)-5-methyl-8-phenyl-7,8-dihydropteridin-6(5H)-one] | – |
| > 50 | > 50 | 1 to 10 | CC[C@@]12CCCN1c1nc(-n3ccnc3-c3cnccn3)ncc1N(C)C2=O [Example 144, (S)-6a-ethyl-5-methyl-2-(2-(pyrazin-2-yl)-1H-imidazol-1-yl)-6a,7,8,9-tetrahydropyrrolo[2,1-h]pteridin-6(5H)-one] | – |
| > 50 | > 50 | < 1 | CC[C@@]12COCCN1c1nc(-n3ccnc3-c3ccc(F)cn3)ncc1N(C)C2=O [Example 380, (S)-6a-ethyl-2-(2-(5-fluoropyridin-2-yl)-1H-imidazol-1-yl)-5-methyl-6a,7,9,10-tetrahydro-[1,4]oxazino[3,4-h]pteridin-6(5H)-one] | PLK2 activity relative to the opposite enantiomer / other isomer (GST-PLK2): more active compound |
| > 50 | > 50 | 10 to 50 | CC[C@]12COCCN1c1nc(-n3ccnc3-c3ccccc3)ncc1N(C)C2=O (single isomer, unassigned) [Example 315] | – |
| > 50 | > 50 | > 50 | CC[C@]12COCCN1c1nc(-n3ccnc3-c3ccc(F)cn3)ncc1N(C)C2=O [Example 381, (R)-6a-ethyl-2-(2-(5-fluoropyridin-2-yl)-1H-imidazol-1-yl)-5-methyl-6a,7,9,10-tetrahydro-[1,4]oxazino[3,4-h]pteridin-6(5H)-one] | – |
| < 1 | 1 to 10 | < 1 | CC[C@@H]1C(=O)N(C)c2cnc(-n3cnc(-c4cccnc4)c3)nc2N1C1CCCC1 [Example 59, (R)-8-cyclopentyl-7-ethyl-5-methyl-2-(4-(pyridin-3-yl)-1H-imidazol-1-yl)-7,8-dihydropteridin-6(5H)-one] | – |
| – | 10 to 50 | – | CN1C(=O)C(CC(F)(F)F)N(CCC(F)(F)F)c2nc(-n3ccnc3-c3ccc(F)cc3)ncc21 (stereo not drawn) [Example 255] | – |
| 10 to 50 | 10 to 50 | < 1 | CC[C@@]12COCCN1c1nc(-n3ccnc3-c3ccc(F)cc3F)ncc1N(C)C2=O [Example 376, (S)-2-(2-(2,4-difluorophenyl)-1H-imidazol-1-yl)-6a-ethyl-5-methyl-6a,7,9,10-tetrahydro-[1,4]oxazino[3,4-h]pteridin-6(5H)-one] | PLK2 activity relative to the opposite enantiomer / other isomer (GST-PLK2): more active compound |
| < 1 | 1 to 10 | < 1 | CC[C@@H]1C(=O)N(C)c2cnc(-n3ccnc3-c3cncnc3)nc2N1C1CCCC1 [Example 159, (R)-8-cyclopentyl-7-ethyl-5-methyl-2-(2-(pyrimidin-5-yl)-1H-imidazol-1-yl)-7,8-dihydropteridin-6(5H)-one] | – |
| > 50 | > 50 | 1 to 10 | CC[C@@H]1C(=O)N(C)c2cnc(-n3ccnc3-c3ccncc3)nc2N1C1CC1 [Example 147, (R)-8-cyclopropyl-7-ethyl-5-methyl-2-(2-(pyridin-4-yl)-1H-imidazol-1-yl)-7,8-dihydropteridin-6(5H)-one] | – |
| – | – | < 1 | CC[C@@]12CCCN1c1nc(-n3ccnc3-c3cccc(Br)c3)ncc1N(C)C2=O [Example 252] | – |
| – | 10 to 50 | – | CC[C@@H]1C(=O)N(C)c2cnc(-n3ccnc3-c3ccc(F)cc3)nc2N1C1CC(F)(F)C1 [Example 247] | – |
| – | < 1 | – | CC[C@@H]1C(=O)N(C)c2cnc(-n3ccnc3-c3ccccc3)nc2N1C1CCOC1 (stereo partly drawn) [Example 182] | – |
| – | 1 to 10 | – | CC[C@@H]1C(=O)N(C)c2cnc(-n3ccnc3-c3ccccc3)nc2N1C1CCOC1 (stereo partly drawn) [Example 203] | – |
| – | > 50 | – | CC[C@@H]1C(=O)N(C)c2cnc(-n3ccc4ccccc43)nc2N1C1CCCC1 [Example 385] | – |
| – | 10 to 50 | – | CC[C@@H]1C(=O)N(C)c2cnc(-n3ccnc3-c3ccc(F)cc3)nc2N1CCC(F)(F)F [Example 233] | – |
| – | 1 to 10 | – | CC[C@@H]1C(=O)N(C)c2cnc(-n3ccnc3-c3ccccc3)nc2N1CCC(F)(F)F [Example 190] | – |
| – | 1 to 10 | – | CC[C@@H]1C(=O)N(C)c2cnc(-n3ccnc3-c3ccc(F)cc3)nc2N1C1CCC(F)(F)C1 (stereo partly drawn) [Example 242] | – |
| – | 1 to 10 | – | CCC1C(=O)N(C)c2cnc(-n3ccnc3-c3ccc(F)cc3)nc2N1c1ccc(F)cc1 (stereo not drawn) [Example 324] | – |
